The target in this test is T1, ALK (Homo sapiens, UniProt Q9UM73).
T1 construct: purchased Millipore
Nature of the test: ALK kinase assay (HTRF). It counts as biochemical. The note with it: apparent Ki from IC50 by Cheng-Prusoff; ALK (Millipore) 3 nM or 4 nM, 50 μM ATP, 1 h at room temperature; read-out: HTRF_ALK Human - Ki. (In general: Time-resolved FRET reads energy transfer from a long-lived donor to a nearby acceptor.)

The text below walks through data of patent publication US20140155389A1, “BICYCLIC INHIBITORS OF ALK” (ABBVIE INC., priority 2011, published 2014).

T1 sequence (Q9UM73 19-1620): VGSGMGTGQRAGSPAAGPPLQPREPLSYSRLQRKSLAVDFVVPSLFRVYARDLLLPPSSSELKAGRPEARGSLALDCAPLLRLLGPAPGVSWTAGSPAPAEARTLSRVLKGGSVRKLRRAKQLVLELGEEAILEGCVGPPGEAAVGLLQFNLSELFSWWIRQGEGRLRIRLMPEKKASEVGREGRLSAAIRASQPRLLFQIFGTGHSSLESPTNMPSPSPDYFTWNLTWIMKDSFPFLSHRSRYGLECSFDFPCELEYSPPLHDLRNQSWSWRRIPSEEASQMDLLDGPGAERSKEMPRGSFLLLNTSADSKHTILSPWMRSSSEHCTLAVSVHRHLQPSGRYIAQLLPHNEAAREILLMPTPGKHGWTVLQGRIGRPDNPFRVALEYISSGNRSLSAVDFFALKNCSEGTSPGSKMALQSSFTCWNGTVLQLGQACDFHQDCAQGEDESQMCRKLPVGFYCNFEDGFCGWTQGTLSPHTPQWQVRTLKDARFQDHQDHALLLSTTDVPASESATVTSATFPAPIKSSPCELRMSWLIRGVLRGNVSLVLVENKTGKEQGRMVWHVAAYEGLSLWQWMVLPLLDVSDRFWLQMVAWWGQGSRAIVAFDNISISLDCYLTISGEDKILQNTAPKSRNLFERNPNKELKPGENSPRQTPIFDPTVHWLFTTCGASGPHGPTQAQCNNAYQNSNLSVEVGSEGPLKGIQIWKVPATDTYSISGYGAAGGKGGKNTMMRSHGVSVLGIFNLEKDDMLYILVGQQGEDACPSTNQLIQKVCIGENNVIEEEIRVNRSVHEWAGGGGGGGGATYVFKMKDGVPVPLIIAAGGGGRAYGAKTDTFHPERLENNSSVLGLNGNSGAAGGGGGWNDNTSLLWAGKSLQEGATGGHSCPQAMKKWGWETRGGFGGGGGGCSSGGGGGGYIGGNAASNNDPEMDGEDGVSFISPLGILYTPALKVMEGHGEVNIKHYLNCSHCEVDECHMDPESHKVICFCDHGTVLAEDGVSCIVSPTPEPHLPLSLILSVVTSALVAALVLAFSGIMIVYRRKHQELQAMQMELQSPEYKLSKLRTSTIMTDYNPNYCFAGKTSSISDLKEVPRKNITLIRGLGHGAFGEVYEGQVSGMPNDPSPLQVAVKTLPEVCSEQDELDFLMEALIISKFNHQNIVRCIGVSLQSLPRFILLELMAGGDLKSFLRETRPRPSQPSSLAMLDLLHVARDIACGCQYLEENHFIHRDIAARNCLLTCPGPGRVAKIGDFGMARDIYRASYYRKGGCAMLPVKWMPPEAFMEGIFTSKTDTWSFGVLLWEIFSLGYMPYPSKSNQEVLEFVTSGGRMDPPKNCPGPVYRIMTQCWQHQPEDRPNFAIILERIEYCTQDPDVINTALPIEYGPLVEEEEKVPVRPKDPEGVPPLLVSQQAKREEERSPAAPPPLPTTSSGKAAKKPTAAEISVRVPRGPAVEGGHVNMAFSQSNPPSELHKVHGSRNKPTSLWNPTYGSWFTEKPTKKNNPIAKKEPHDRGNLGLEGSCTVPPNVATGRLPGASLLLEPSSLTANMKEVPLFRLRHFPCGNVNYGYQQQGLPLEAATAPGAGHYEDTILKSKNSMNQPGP

In the case of `COc1cc(C2CCNCC2)ccc1Nc1cc(Cc2c(Cl)cccc2Cl)nc2cn[nH]c(=O)c12` [Example 101, 2-(2,6-dichlorobenzyl)-4-{[2-methoxy-4-(piperidin-4-yl)phenyl]amino}pyrido[2,3-d]pyridazin-5(6H)-one], the Ki is 1 nM.
With `COc1cc(C2CCNCC2)ccc1Nc1cc(CCN2CCOCC2)nc2cn[nH]c(=O)c12` [Example 102, 4-{[2-methoxy-4-(piperidin-4-yl)phenyl]amino}-2-[2-(morpholin-4-yl)ethyl]pyrido[2,3-d]pyridazin-5(6H)-one] the figure was 331 nM; with `O=c1[nH]ncc2cc(Oc3ccccc3Cl)nc(Nc3ccc(N4CCNCC4)cn3)c12` [Example 103, 7-(2-chlorophenoxy)-5-{[5-(piperazin-1-yl)pyridin-2-yl]amino}pyrido[3,4-d]pyridazin-4(3H)-one], 20 nM; with `COc1cc(C2CCNCC2)ccc1Nc1cc(CCC2CC2)nc2cn[nH]c(=O)c12` [Example 104, 2-(2-cyclopropylethyl)-4-{[2-methoxy-4-(piperidin-4-yl)phenyl]amino}pyrido[2,3-d]pyridazin-5(6H)-one], 75 nM.
Turning to `COc1cc(C(=O)N2CCCC2)ccc1Nc1nc(Oc2ccccc2Cl)cc2cnnc(O)c12` [Example 105, (4-{[7-(2-chlorophenoxy)-4-hydroxypyrido[3,4-d]pyridazin-5-yl]amino}-3-methoxyphenyl)(pyrrolidin-1-yl)methanone], the Ki was above 470 nM.
As to `CCOc1cc(C2CCNCC2)ccc1Nc1nc(Oc2ccccc2Cl)cc2cn[nH]c(=O)c12` [Example 106, 7-(2-chlorophenoxy)-5-{[2-ethoxy-4-(piperidin-4-yl)phenyl]amino}pyrido[3,4-d]pyridazin-4(3H)-one], the Ki came to 21 nM.
On to `COc1cc(C2CCNCC2)ccc1Nc1cc(Cc2ccccc2F)nc2cn[nH]c(=O)c12` [Example 107, 2-(2-fluorobenzyl)-4-{[2-methoxy-4-(piperidin-4-yl)phenyl]amino}pyrido[2,3-d]pyridazin-5(6H)-one], for which the Ki amounted to 16 nM.
With `COc1cc(C2CCNCC2)ccc1Nc1cc(Cc2cccc(Cl)c2Cl)nc2cn[nH]c(=O)c12` [Example 108, 2-(2,3-dichlorobenzyl)-4-{[2-methoxy-4-(piperidin-4-yl)phenyl]amino}pyrido[2,3-d]pyridazin-5(6H)-one] the figure was 8 nM; with `COc1cc(C2CCNCC2)ccc1Nc1cc(Cc2c(F)cccc2F)nc2cn[nH]c(=O)c12` [Example 109, 2-(2,6-difluorobenzyl)-4-{[2-methoxy-4-(piperidin-4-yl)phenyl]amino}pyrido[2,3-d]pyridazin-5(6H)-one], 6 nM; with `COc1cc(C2CCNCC2)ccc1Nc1cc(Cc2cc(F)ccc2F)nc2cn[nH]c(=O)c12` [Example 110, 2-(2,5-difluorobenzyl)-4-{[2-methoxy-4-(piperidin-4-yl)phenyl]amino}pyrido[2,3-d]pyridazin-5(6H)-one], 16 nM.
As for `COc1cc(C2CCNCC2)ccc1Nc1cc(Cc2cccc(F)c2F)nc2cn[nH]c(=O)c12` [Example 111, 2-(2,3-difluorobenzyl)-4-{[2-methoxy-4-(piperidin-4-yl)phenyl]amino}pyrido[2,3-d]pyridazin-5(6H)-one], the Ki was 15 nM.
As to `COc1cc(C2CCNCC2)ccc1Nc1cc(Cc2c(F)cccc2Cl)nc2cn[nH]c(=O)c12` [Example 112, 2-(2-chloro-6-fluorobenzyl)-4-{[2-methoxy-4-(piperidin-4-yl)phenyl]amino}pyrido[2,3-d]pyridazin-5(6H)-one], the Ki amounted to 4 nM.
With `COc1ccccc1Nc1nc(Nc2ccc(N3CCNCC3)cc2)cc2cnnc(O)c12` [Example 113, 5-[(2-methoxyphenyl)amino]-7-{[4-(piperazin-1-yl)phenyl]amino}pyrido[3,4-d]pyridazin-4-ol], the Ki turned out to be 58 nM.
Next, `CCOc1cc(N2CCNCC2)ccc1Nc1nc(Oc2ccccc2Cl)cc2cnnc(O)c12` [Example 114, 7-(2-chlorophenoxy)-5-{[2-ethoxy-4-(piperazin-1-yl)phenyl]amino}pyrido[3,4-d]pyridazin-4-ol]: 8 nM.
As for `COc1cc(N2CCNCC2)ccc1Nc1nc(Oc2ccccc2C#N)cc2cn[nH]c(=O)c12` [Example 115, 2-[(5-{[2-methoxy-4-(piperazin-1-yl)phenyl]amino}-4-oxo-3,4-dihydropyrido[3,4-d]pyridazin-7-yl)oxy]benzonitrile], the Ki was 6 nM.
As to `COc1cc(CN2CCN(C)CC2)ccc1Nc1cc(Cc2ccccc2Cl)nc2cn[nH]c(=O)c12` [Example 116, 2-(2-chlorobenzyl)-4-({2-methoxy-4-[(4-methylpiperazin-1-yl)methyl]phenyl}amino)pyrido[2,3-d]pyridazin-5(6H)-one], the Ki was 33 nM.
Consider `O=c1[nH]ncc2cc(Oc3ccccc3Cl)nc(Nc3ccc(N4CCNCC4)cc3OC(F)F)c12` [Example 117, 7-(2-chlorophenoxy)-5-{[2-(difluoromethoxy)-4-(piperazin-1-yl)phenyl]amino}pyrido[3,4-d]pyridazin-4(3H)-one], for which the Ki was determined as 15 nM.
Next, `O=c1[nH]ncc2cc(Oc3ccccc3Cl)nc(Nc3ccc(C4CCNCC4)cn3)c12` [Example 118, 7-(2-chlorophenoxy)-5-{[5-(piperidin-4-yl)pyridin-2-yl]amino}pyrido[3,4-d]pyridazin-4(3H)-one]: 15 nM; `COc1cc(N2CCNCC2)ccc1Nc1nc(Oc2ccccc2Cl)cc2c(C)nnc(O)c12` [Example 119, 7-(2-chlorophenoxy)-5-{[2-methoxy-4-(piperazin-1-yl)phenyl]amino}-1-methylpyrido[3,4-d]pyridazin-4-ol]: 15 nM.
Take `N#Cc1cc(N2CCNCC2)ccc1Nc1nc(Oc2ccccc2Cl)cc2cnnc(O)c12` [Example 120, 2-{[7-(2-chlorophenoxy)-4-hydroxypyrido[3,4-d]pyridazin-5-yl]amino}-5-(piperazin-1-yl)benzonitrile]: the Ki stood at 2 nM.
